According to PubChem BioAssay AID1963969 (Molecular Pharmacology Branch, DTP, NCI, 2024):

Tested on: 817829-284-R-J1-PDC multi-cell spheroid viability
Experiment: Anticancer human tumor 817829-284-R-J1-PDC patient-derived colon adenocarcinoma cell line growth inhibition [PI3K]
Settings: for IC50: curve of first compound; for viability, T/C: stronger effect = lower value; active means viability on the fitted dose curve at most 10% of control; inactive means the rest
Method in brief: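 Targeted small molecules plus PI3K inhibitors, half-log dose series from Cmax (default top 10 microM), were applied to heterotypic spheroids of cancer cells with HUVEC and MSCs. Viability indicated growth inhibition.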

[1] = second compound 0.0316 µM, first compound 0.0316 µM
[2] = second compound 0.0316 µM, first compound 0.1 µM
[3] = second compound 0.0316 µM, first compound 0.316 µM
[4] = second compound 0.0316 µM, first compound 1 µM
[5] = second compound 0.0316 µM, first compound 3.16 µM
[6] = second compound 0.0316 µM, first compound 10 µM
[7] = second compound 0.1 µM, first compound 0.0316 µM
[8] = second compound 0.1 µM, first compound 0.1 µM
[9] = second compound 0.1 µM, first compound 0.316 µM
[10] = second compound 0.1 µM, first compound 1 µM
[11] = second compound 0.1 µM, first compound 3.16 µM
[12] = second compound 0.1 µM, first compound 10 µM
[13] = second compound 0.316 µM, first compound 0.0316 µM
[14] = second compound 0.316 µM, first compound 0.1 µM
[15] = second compound 0.316 µM, first compound 0.316 µM
[16] = second compound 0.316 µM, first compound 1 µM
[17] = second compound 0.316 µM, first compound 3.16 µM
[18] = second compound 0.316 µM, first compound 10 µM
[19] = second compound 1 µM, first compound 0.0316 µM
[20] = second compound 1 µM, first compound 0.1 µM
[21] = second compound 1 µM, first compound 0.316 µM
[22] = second compound 1 µM, first compound 1 µM
[23] = second compound 1 µM, first compound 3.16 µM
[24] = second compound 1 µM, first compound 10 µM
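Further: spheroids exposed to agents for seven days before readout.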
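Wherever viability, T/C is given: percent of vehicle DMSO control viability which is 100%.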

C#Cc1c(F)ccc2cc(O)cc(-c3ncc4c(N5CC6CCC(C5)N6)nc(OCC56CCCN5CC(F)C6)nc4c3F)c12 (stereo unspecified) + COc1c(OCCCN2CCOCC2)ccc2c3n(c(=NC(=O)c4cnc(N)nc4)nc12)CCN3
< 0.0316 µM: IC50 (second compound 0.1 µM) | IC50 (second compound 0.316 µM) | IC50 (second compound 1 µM)
inactive: viability, T/C (second compound 0.00316 µM, first compound 0.0316 µM) 64.9% | viability, T/C (second compound 0.00316 µM, first compound 0.1 µM) 82.5% | viability, T/C (second compound 0.00316 µM, first compound 0.316 µM) 83.7% | viability, T/C (second compound 0.00316 µM, first compound 1 µM) 71.8% | viability, T/C (second compound 0.00316 µM, first compound 3.16 µM) 77% | viability, T/C (second compound 0.00316 µM, first compound 10 µM) 70.2% | viability, T/C (second compound 0.01 µM, first compound 0.0316 µM) 86.2% | viability, T/C (second compound 0.01 µM, first compound 0.1 µM) 84% | viability, T/C (second compound 0.01 µM, first compound 0.316 µM) 62.9% | viability, T/C (second compound 0.01 µM, first compound 1 µM) 61.8% | viability, T/C (second compound 0.01 µM, first compound 3.16 µM) 69.6% | viability, T/C (second compound 0.01 µM, first compound 10 µM) 51.1% | viability, T/C [1] 73.8% | viability, T/C [2] 41.5% | viability, T/C [3] 53.7% | viability, T/C [4] 50.4% | viability, T/C [5] 74.8% | viability, T/C [6] 37.2% | viability, T/C [7] 28.6% | viability, T/C [8] 40.5% | viability, T/C [9] 37.6% | viability, T/C [10] 21.4% | viability, T/C [11] 37.8% | viability, T/C [12] 30.8% | viability, T/C [13] 17.4% | viability, T/C [14] 26.3% | viability, T/C [15] 22.2% | viability, T/C [16] 14.9% | viability, T/C [17] 18% | viability, T/C [18] 12.4%
active: viability, T/C [19] 8.66% | viability, T/C [20] 9.22% | viability, T/C [21] 8.61% | viability, T/C [22] 8.24% | viability, T/C [23] 5.56% | viability, T/C [24] 6.03%
> 10 µM: IC50 (second compound 0.00316 µM) | IC50 (second compound 0.01 µM)
7.45 µM: IC50 (second compound 0.0316 µM)

CC(=O)c1c(C)c2cnc(Nc3ccc(N4CCNCC4)cn3)nc2n(C2CCCC2)c1=O
inactive: viability, T/C (compound 0.0316 µM) 54.6% [middle of 4 runs] | viability, T/C (compound 0.1 µM) 39.3% [middle of 4 runs]

CCCS(=O)(=O)Nc1ccc(F)c(C(=O)c2c[nH]c3ncc(-c4ccc(Cl)cc4)cc23)c1F + CC(Nc1ncnc2nc[nH]c12)c1cc2cccc(Cl)c2c(=O)n1-c1ccccc1
1.35 µM: IC50 (second compound 3.16 µM)
4.76 µM: IC50 (second compound 0.0316 µM)
inactive: viability, T/C [1] 110% | viability, T/C [2] 61.7% | viability, T/C [3] 62.3% | viability, T/C [4] 52% | viability, T/C [5] 90.5% | viability, T/C [7] 78% | viability, T/C [8] 72.6% | viability, T/C [9] 72.7% | viability, T/C [10] 89% | viability, T/C [11] 63.9% | viability, T/C [13] 98.2% | viability, T/C [14] 70% | viability, T/C [15] 101% | viability, T/C [16] 60.6% | viability, T/C [17] 57.8% | viability, T/C [19] 66.9% | viability, T/C [20] 70.5% | viability, T/C [21] 87% | viability, T/C [22] 38.3% | viability, T/C [23] 68.3% | viability, T/C (second compound 3.16 µM, first compound 0.0316 µM) 114% | viability, T/C (second compound 3.16 µM, first compound 0.1 µM) 89% | viability, T/C (second compound 3.16 µM, first compound 0.316 µM) 68.6% | viability, T/C (second compound 3.16 µM, first compound 1 µM) 59% | viability, T/C (second compound 3.16 µM, first compound 3.16 µM) 47.2% | viability, T/C (second compound 3.16 µM, first compound 10 µM) 8.3% | viability, T/C (second compound 10 µM, first compound 0.0316 µM) 72.4% | viability, T/C (second compound 10 µM, first compound 0.1 µM) 75.2% | viability, T/C (second compound 10 µM, first compound 0.316 µM) 68.9% | viability, T/C (second compound 10 µM, first compound 1 µM) 49.8% | viability, T/C (second compound 10 µM, first compound 3.16 µM) 47.7% | viability, T/C (second compound 10 µM, first compound 10 µM) 9.39%
1.79 µM: IC50 (second compound 10 µM)
4.21 µM: IC50 (second compound 0.1 µM)
active: viability, T/C [6] 4.04% | viability, T/C [12] 7.99% | viability, T/C [18] 4.81% | viability, T/C [24] 6.14%
3.33 µM: IC50 (second compound 0.316 µM)
4.31 µM: IC50 (second compound 1 µM)
